Publication PMC5309245, “Discovery and Characterization of Diazenylaryl Sulfonic Acids as Inhibitors of Viral and Bacterial Neuraminidases” (Frontiers in Microbiology, 2017)

Columns and labels:
[1] = molecular target: T1, S. pneumoniae DSM20566 NA (Streptococcus pneumoniae, UniProt P62575); test: HA-based NA inhibition assay, S. pneumoniae DSM20566; type: cell-based; details: human erythrocytes
T1 construct: host or cells: either rNanA from E. coli BL21(DE3) or total precipitated protein of S. pneumoniae DSM20566

[2] = system: S. pneumoniae DSM20566 biofilm; test: Biofilm inhibition assay; type: cell-based, Streptococcus pneumoniae DSM20566; details: 24 h, maximum 50 μM
human erythrocytes [3] = type: cell-based; details: human erythrocytes, 4 h at 37°C and 12 h at 4°C
Protocol: (§1) Viral (whole virus) and bacterial NA activity as well as their inhibition were measured by using a fluorescence (FL) assay with the substrate 2′-(4-methylumbelliferyl)-α-D-N-acetylneuraminic acid sodium salt hydrate (MUNANA, 100 μM; Sigma-Aldrich GmbH, Taufkirchen, Germany), and/or a hemagglutination (HA)-based NA inhibition assay (HA assay) with human erythrocytes (Institute of Transfusion Medicine, University Hospital Jena, Jena, Germany), both assays as published recently (Richter et al., [2015]). Recombinant NanA (rNanA) and total precipitated bacterial protein of S. pneumoniae DSM20566 were used in FL and HA assays. Interference of the compounds with the FL signal (self-fluorescence and quenching) was excluded as described previously (Richter et al., [2015]). […] Each compound was tested at least three times in both NA inhibition assays.
Supplementary Table 1. […]
eTest compounds lysed the human erythrocytes (4 h at 37°C and 12 h at 4°C).

[4] = system: influenza A virus 8178/09; test: microbe, parasite or virus in culture; type: cell-based, influenza A virus A/Jena/8178/2009 (H1N1)
in vitro = details: dog
IAV 5258/09 NA = test: Hemagglutination (HA)-based NA inhibition assay, IAV 5258/09; type: cell-based, influenza A virus A/Jena/5258/2009 (H1N1); details: human erythrocytes
[5] = molecular target: IAV HK/68 NA (whole virus) (Influenza A virus, UniProt Q91MA2); test: biochemical; set-up: species or system influenza A virus A/Hong Kong/68 (H3N2); details: for IC50: NA inhibition using FL assay IC50, IAV HK/68
influenza A virus WSN/33 = test: microbe, parasite or virus in culture; type: cell-based, influenza A virus A/WSN/1933 (H1N1)
S. pneumoniae DSM20566 = test: Microtiter broth microdilution assay, planktonic growth; type: cell-based, Streptococcus pneumoniae DSM20566; details: 18 h, maximum 50 μM
human erythrocytes [6] = type: cell-based; details: human erythrocytes, 2 h at 4°C
Protocol: as §1
Supplementary Table 1. Assay interference phenomena of test compounds in the HA-based […]
sample concentrations [µM] in viral HA-assay bacterial HA-assay […]
hem- prevention of erythrocyte hem- erythrocyte agglutinationa virus-induced lysisc agglutinationd lysise […]
cTest compounds lysed the human erythrocytes (2 h at 4°C). […]

influenza A virus HK/68 = test: microbe, parasite or virus in culture; type: cell-based, influenza A virus A/Hong Kong/68 (H3N2)
[7] = molecular target: T2, S. pneumoniae DSM20566 NA (NanA) (Streptococcus pneumoniae, UniProt P62575); test: FL NA inhibition assay, S. pneumoniae DSM20566; type: biochemical; details: MUNANA substrate; for IC50: read-out: NA inhibition using FL assay IC50, S. p. DSM20566
T2 construct: host or cells: either rNanA from E. coli BL21(DE3) or total precipitated protein of S. pneumoniae DSM20566

[8] = molecular target: IAV WSN/33 NA-wt (whole virus) (Influenza A virus, UniProt P03470); test: biochemical; set-up: species or system influenza A virus A/WSN/1933 (H1N1); details: for IC50: NA inhibition using FL assay IC50, IAV WSN/33
Chain of IAV WSN/33 NA-wt (whole virus) (P03470 whole entry, looked up): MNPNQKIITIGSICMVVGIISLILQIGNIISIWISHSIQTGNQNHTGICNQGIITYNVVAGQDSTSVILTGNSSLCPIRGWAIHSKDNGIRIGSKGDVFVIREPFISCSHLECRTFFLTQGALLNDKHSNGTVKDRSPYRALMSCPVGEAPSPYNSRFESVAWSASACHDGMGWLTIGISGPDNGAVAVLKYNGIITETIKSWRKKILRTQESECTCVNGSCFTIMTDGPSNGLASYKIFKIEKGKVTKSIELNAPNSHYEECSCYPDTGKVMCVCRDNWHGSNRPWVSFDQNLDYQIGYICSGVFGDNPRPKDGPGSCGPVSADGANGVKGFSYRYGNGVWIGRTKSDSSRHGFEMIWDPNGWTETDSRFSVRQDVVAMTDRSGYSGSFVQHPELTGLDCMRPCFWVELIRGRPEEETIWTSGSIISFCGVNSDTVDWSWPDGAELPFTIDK

T1 sequence (P62575 54-1035): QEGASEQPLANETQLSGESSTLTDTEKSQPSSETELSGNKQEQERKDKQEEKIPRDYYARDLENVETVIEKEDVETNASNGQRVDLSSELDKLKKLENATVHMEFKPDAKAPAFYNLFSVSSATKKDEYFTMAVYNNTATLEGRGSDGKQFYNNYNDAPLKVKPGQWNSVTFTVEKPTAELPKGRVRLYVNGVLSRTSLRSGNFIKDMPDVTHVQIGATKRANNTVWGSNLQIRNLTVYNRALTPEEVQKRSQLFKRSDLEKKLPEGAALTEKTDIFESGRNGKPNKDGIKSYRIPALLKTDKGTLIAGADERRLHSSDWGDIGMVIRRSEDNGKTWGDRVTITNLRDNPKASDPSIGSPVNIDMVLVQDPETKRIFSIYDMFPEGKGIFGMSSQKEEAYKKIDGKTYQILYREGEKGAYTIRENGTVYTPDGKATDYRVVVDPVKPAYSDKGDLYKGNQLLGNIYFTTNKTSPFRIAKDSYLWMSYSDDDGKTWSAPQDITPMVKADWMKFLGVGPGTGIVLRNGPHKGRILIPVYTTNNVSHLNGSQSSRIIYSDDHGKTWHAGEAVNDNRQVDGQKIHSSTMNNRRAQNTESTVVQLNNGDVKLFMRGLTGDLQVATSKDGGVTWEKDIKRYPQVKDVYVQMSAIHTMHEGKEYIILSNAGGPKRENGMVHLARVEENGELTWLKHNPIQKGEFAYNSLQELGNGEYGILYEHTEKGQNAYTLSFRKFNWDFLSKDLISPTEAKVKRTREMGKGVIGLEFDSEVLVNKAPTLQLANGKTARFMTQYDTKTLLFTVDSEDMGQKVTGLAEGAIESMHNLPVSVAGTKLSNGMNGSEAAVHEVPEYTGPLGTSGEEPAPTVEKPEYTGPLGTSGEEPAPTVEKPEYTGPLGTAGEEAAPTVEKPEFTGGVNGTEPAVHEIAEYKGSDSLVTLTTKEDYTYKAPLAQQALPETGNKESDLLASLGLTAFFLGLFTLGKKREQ
T2 sequence (P62575 54-1035): as above
Chain of IAV HK/68 NA (whole virus) (Q91MA2 whole entry, looked up): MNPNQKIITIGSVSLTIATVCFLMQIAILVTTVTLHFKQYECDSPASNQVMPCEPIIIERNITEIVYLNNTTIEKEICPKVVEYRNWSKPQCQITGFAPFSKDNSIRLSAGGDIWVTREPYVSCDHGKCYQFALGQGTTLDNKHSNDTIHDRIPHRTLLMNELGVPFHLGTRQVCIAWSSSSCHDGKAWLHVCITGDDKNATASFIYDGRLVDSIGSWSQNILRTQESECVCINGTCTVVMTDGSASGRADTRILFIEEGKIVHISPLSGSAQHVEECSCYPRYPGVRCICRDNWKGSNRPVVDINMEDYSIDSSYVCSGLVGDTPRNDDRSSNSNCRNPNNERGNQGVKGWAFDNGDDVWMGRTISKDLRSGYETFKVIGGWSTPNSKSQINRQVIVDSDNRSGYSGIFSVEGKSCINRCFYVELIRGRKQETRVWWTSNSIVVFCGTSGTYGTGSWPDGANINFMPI

Row | Compound | NA inhibition using HA assay MIC, S. p. DSM20566 [1] | IC50 ([2]; Streptococcus pneumoniae, DSM20566, read-out: 50% inhibitory concentration, S. pneumoniae DSM20566 biofilm formation) | sample concentrations provoking erythrocyte lysis, bacterial HA-assay (human erythrocytes [3]) | 50% inhibitory concentration, influenza A virus 8178/09 [4] | CC50 (in vitro) | NA inhibition using HA assay MIC, IAV 5258/09 (IAV 5258/09 NA) | IC50 [5] | 50% inhibitory concentration, influenza A virus WSN/33 (influenza A virus WSN/33) | 50% inhibitory concentration, S. pneumoniae DSM20566 planktonic growth (S. pneumoniae DSM20566) | sample concentrations provoking erythrocyte lysis, viral HA-assay (human erythrocytes [6]) | 50% inhibitory concentration, influenza A virus HK/68 (influenza A virus HK/68) | IC50 [7] | 50% inhibitory concentration, S. pneumoniae DSM20566 biofilm formation [2] | IC50 [8] | NA inhibition using FL assay IC50, IAV HK/68 [5] | NA inhibition using FL assay IC50, IAV WSN/33 [8] | NA inhibition using FL assay IC50, S. p. DSM20566 [7]
1 | Cc1ccccc1/N=N/c1ccc(/N=N/c2c(O)ccc3cc(S(=O)(=O)O)cc(S(=O)(=O)O)c23)c(C)c1 [Compound 5] | 2.44 ± 1.25 µM | 42.2 ± 2.57 µM | no | Not active | > 100 µM | 10.00 ± 0.00 µM | 17.8 ± 3.25 µM | Not active | Not active | no | Not active | 0.97 ± 0.3 µM | – | – | – | – | –
2 | O=S(=O)(O)c1cc(/N=N/c2c(O)ccc3ccccc23)c2c(S(=O)(=O)O)cccc2c1 [Compound 15] | Not active^c | – | no | Not active | > 100 µM | Not active^c | – | Not active | Not active | no | Not active | 46.8 ± 5.27 µM | Not active | 28.7 ± 3.3 µM | Not active | – | –
3 | O=S(=O)(O)c1ccc2c(/N=N/c3ccccc3)c(O)ccc2c1 [Compound 10] | Not active^c | – | no | Not active | > 100 µM | Not active^c | – | Not active | Not active | no | Not active | 10.2 ± 1.35 µM | Not active | – | Not active | Not active | –
4 | O=[N+]([O-])c1ccc(/N=N/c2c(O)c(S(=O)(=O)O)cc3cc(S(=O)(=O)O)ccc23)cc1 [Compound 12] | Not active | – | no | Not active | > 100 µM | Not active | – | Not active | Not active | no | Not active | – | Not active | – | Not active | Not active | Not active
5 | O=S(=O)(O)c1cc2cccc(S(=O)(=O)O)c2c(O)c1/N=N/c1ccccc1 [Compound 17] | Not active | – | no | Not active | > 100 µM | Not active | – | Not active | Not active | no | Not active | – | Not active | – | Not active | Not active | Not active
6 | COc1cc(/N=N/c2ccc(S(=O)(=O)O)cc2)ccc1/N=N/c1c(O)ccc2cc(S(=O)(=O)O)ccc12 [Compound 8] | Not active | – | no | Not active | > 100 µM | Not active | – | Not active | Not active | no | Not active | 3.9 ± 0.51 µM | Not active | 6.51 ± 0.72 µM | Not active | – | –
7 | O=[N+]([O-])c1cccc(/N=N/c2c(O)c(S(=O)(=O)O)cc3cc(S(=O)(=O)O)ccc23)c1 [Compound 13] | Not active | – | no | Not active | > 100 µM | Not active | – | Not active | Not active | no | Not active | – | Not active | – | Not active | Not active | Not active
8 | O=S(=O)(O)c1ccc2c(/N=N/c3c(O)ccc4ccccc34)cccc2c1 [Compound 14] | Not active^c | – | no | Not active | > 100 µM | Not active^c | 83 ± 6.25 µM | Not active | Not active | no | Not active | 5.74 ± 1.41 µM | Not active | 28.9 ± 6.9 µM | – | – | –
